Measurements from US10974064B2, “Optogenetic control of behavioral state” (The Board of Trustees of the Leland Stanford Junior …, priority 2013, dated 2021).

What was measured:
adBNST neurons [1] = experiment: Calcium imaging (OGB-1) of persistent activity in adBNST slice after electrical stimulation; assay type: cell-based, mice; conditions: 100 μM APV, then 10 μM NBQX added; N (all cells) 277 for APV, 279 for NBQX + APV
adBNST neurons [2] = experiment: Ex vivo slice voltage-clamp recording of light-evoked EPSCs and IPSCs (ChR2 in BLA afferents); assay type: cell-based, mice; conditions: bath application 100 μM picrotoxin; n=4
Method: For slice physiology in combination with optogenetics, 3-4 week old male wild-type mice were injected with AAV-CaMKIIa::ChR2-eYFP into the BLA, or male Drd1a-Cre mice were injected with AAV-EFla::DIO-ChR2(H134R)-eYFP into the ovBNST. After a month, acute 300 μm coronal slices were obtained by transcardially perfusing ice-cold sucrose cutting solution (in mM; 11 D-glucose, 234 sucrose, 2.5 KCl, 1.25 NaH2PO4, 10 MgSO4, 0.5 CaCl2, 26 NaHCO3) and slicing in the same solution using a vibratome (VT1000S; Leica, Buffalo Grove, Ill., USA). Slices were recovered in oxygenated artificial cerebrospinal fluid (aCSF; in mM, 123 NaCl, 26 NaHCO3, 3 KCl, 1.25 NaH2PO4, 1 MgCl2, 2 CaCl2, and 11 glucose) at 32° C. for one hour. […]
For the blue light delivery, light was emitted from a 300 W broad-wavelength xenon lamp source (DG-4, Sutter Instruments, Novato, Calif., USA), band-pass filtered at 470±20 nm (Semrock; Rochester, N.Y., USA), passed through additional neutral density filters (ThorLabs; Newton, N.J., USA) and coupled to the fluorescence port of the microscope. […]
Voltage-clamp recordings were made at both −70 mV to isolate EPSCs, and at 0 mV to isolate IPSCs. […] Currents were filtered at 2 kHz, digitized at 50 kHz, and recorded to disk using pClamp10 software (Molecular Devices). […]

NC(CCCP(=O)(O)O)C(=O)O (centres unmarked) [APV, 2-amino-5-phosphonopentanoic acid]
N (number of cells activated after stimulation) (adBNST neurons [1]): 61

picrotoxin
light-evoked IPSCs (adBNST neurons [2]): blocked
